Results from US7119075B2, “Use of herbal agents for potentiation of bioefficacy of anti infectives” (priority 2003, dated 2006).
Converted amounts (≈) assume the structure as drawn.

Legend:
Format in all cases: cell-based
[1] = test system: M. tuberculosis; experiment: MIC of drugs alone and with bioenhancer (Table 7); details: for MIC: Mycobacterium tuberculosis, Drug alone
[2] = test system: Yeast; experiment: MIC of drugs alone and with bioenhancer (Table 7); details: Saccharomyces cerevisiae; read-out: MIC Drug alone
[3] = test system: Filamentous fungi; experiment: organism not typed; details: read-out: MIC Drug alone
[4] = test system: Gram positive bacteria; experiment: organism not typed; details: read-out: MIC Drug alone
[5] = test system: Gram negative bacteria; experiment: organism not typed

Structure (SMILES)	MIC [1] [µg/mL]	MIC [4] [µg/mL]	also measured
CC[C@@H](CO)NCCN[C@@H](CC)CO [Ethambutol]	1 to 5		
OC(Cn1cncn1)(Cn1cncn1)c1ccc(F)cc1F [Fluconazole]			MIC [2]: 0.12 to 64 µg/mL
NNC(=O)c1ccncc1 [Isoniazid]	0.12 to 32		
CC(=O)N1CCN(c2ccc(OCC3COC(Cn4ccnc4)(c4ccc(Cl)cc4Cl)O3)cc2)CC1 (centres unmarked) [Ketoconazole]			MIC [2]: 0.12 to 0.5 µg/mL; MIC [3]: 0.25 to 2 µg/mL (≈ 0.47 to 3.76 µM)
CCn1cc(C(=O)O)c(=O)c2cc(F)c(N3CCNCC3)cc21 [Norfloxacin]		0.12 to 32 (≈ 0.376 to 100 µM)	MIC Drug alone ([5]; Drug alone): 0.03 to 64 µg/mL
CC1COc2c(N3CCN(C)CC3)c(F)cc3c(=O)c(C(=O)O)cn1c23 (centres unmarked) [Ofloxacin]	0.5 to 2.5	0.12 to 32 (≈ 0.332 to 88.6 µM)	MIC ([5]; read-out: MIC Drug alone): 0.06 to 32 µg/mL (≈ 0.166 to 88.6 µM); MIC Drug alone [1]: 0.5 to 25 µg/mL
NC(=O)c1cnccn1 [Pyrazinamide]	6 to 60		
CO[C@H]1/C=C/O[C@@]2(C)Oc3c(C)c(O)c4c(O)c(c(/C=N/N5CCN(C)CC5)c(O)c4c3C2=O)NC(=O)/C(C)=C\C=C\[C@H](C)[C@H](O)[C@@H](C)[C@@H](O)[C@@H](C)[C@H](OC(C)=O)[C@@H]1C [Rifampicin]	0.06 to 0.5		
CN[C@H](CC(C)C)C(=O)N[C@H]1C(=O)N[C@@H](CC(N)=O)C(=O)N[C@H]2C(=O)N[C@H]3C(=O)N[C@H](C(=O)N[C@H](C(=O)O)c4cc(O)cc(O)c4-c4cc3ccc4O)[C@H](O)c3ccc(c(Cl)c3)Oc3cc2cc(c3O[C@@H]2O[C@H](CO)[C@@H](O)[C@H](O)[C@H]2O[C@H]2C[C@](C)(N)[C@H](O)[C@H](C)O2)Oc2ccc(cc2Cl)[C@H]1O [Vancomycin]		0.03 to 8 (≈ 0.0207 to 5.52 µM)	
